Consider four compounds from patent US20110262502A1, “PULMONARY DELIVERY OF 17-HYDROXYPROGESTERONE CAPROATE (17-HPC)” (Prairie Pharmaceuticals LLC, priority 2010, published 2011).

Experiment [1] deals with PHA-induced IL-2 production in PBMCs. Description: PHA-induced IL-2 production in PBMCs from healthy male smokers (no IL-2/IL-4 added), ELISA. Format: cell-based, human. The settings on record: for levels of IL-2 in PBMCs: FIG. 1; for % inhibition of PHA stimulation of IL-2: Table 2. As to the method:
PBMCs were isolated from human blood buffy coats provided by a regional blood center. Random buffy coat cells from male donors were a by-product of blood processed for clinical use and no details (i.e., personal identification and background) were provided except for tobacco use. […] PBMCs were separated using a porous high density polyethylene barrier (HISTOPAQUE from GEHealthcare Bio-Sciences AB (US). After centrifugation of blood samples in each tube (35 minutes at 800×g at room temperature, or RT), PBMCs were collected and washed twice with Hank's buffered saline solution (HBSS). PBMCs were resuspended in RPMI-1640 medium containing 10% fetal calf serum (FCS) and 15 mM glutamine and cells were counted and plated.
(§1) PBMCs (2×10^6) were incubated with or without IL-2 (13 ng/ml) and IL-4 (6.5 ng/ml) for 48 hours in RPMI-1640 medium containing 10% FCS and 2 mM glutamine. […] IL-2 and IL-4 stimulated PBMCs were also plated at a concentration of 10^6 cells/ml in 96-well plates ready for PHA (15 μg/mL, 24 hours) stimulation of cytokine release and detection by ELISA.
Serial dilutions of standards and PBMCs' supernatants were measured by enzyme linked immunosorbent assay to determine IL-2 at baseline and its levels after 17HPC, P4 and MAP treatments. Optical density was measured at 450 nm and corrected with 550 nm. The concentration of TL-2 was calculated using the standard curve and taking into account the supernatant dilution used. Detection limit for IL-2 is 4.0 pg/ml.
Data are expressed as mean±SD. The efficacies of the drug treatments were analyzed by paired t-test. One-way analysis of variance was used to compare three or more matched groups and 95% CI was performed to present groups differences. All graphs indicate mean values of results or % inhibition of PHA-stimulated IL-2. IC50 values were calculated by using a sigmoidal model (BioDataFit). A p value <0.05 was considered statistically significant.
(§2) IL-2 levels were quantified using ELISA.
IL-2 levels were quantified using ELISA. IC50 values were calculated by using a sigmoidal model (BioDataFit).
as §2, §2, §2

Experiment [2] concerns PHA-induced IL-2 release in IL-2 and IL-4 treated (steroid resistant) PBMCs. Description: IL-2/IL-4 induced steroid resistance model in PBMCs: dexamethasone inhibition of PHA-induced IL-2 release. Format: cell-based, human. As to the method:
J Immunol 2009; 183; 164-171). […] Following PBMCs stimulation with mitogen phytohaemagglutinin (PHA), there is a strong correlation between cytokine secretion levels and steroid resistance as well as steroid sensitivity in vitro. Addition of IL-2, IL-4 and TNF-reduce steroid sensitivity.
as §1
IL-2/4 induced steroid resistance in PBMCs, a well-recognized study model, was used to evaluate potential modifiers of steroid resistance and sensitivity. PBMCs from healthy smokers were collected. Corticosteroid insensitivity or resistance was induced by adding IL-2 and IL-4 in peripheral blood mononuclear cells (PBMCs) from healthy male smokers (n=˜11). […] IL-2 levels were quantified using ELISA.
J Immunol 2009; 183; 164-171).
as §2

Experiment [3] relates to patients with severe premenstrual exacerbations of asthma. The settings on record: intramuscular, added to regimen incl. corticosteroids; 3 cases; cited from earlier work.
Experiment [4] has as its system females with severe asthma. The settings on record: sublingual; sixteen patients; cited from earlier work.
The test system of experiment [5] is mitogen-activated protein kinase. The conditions noted are these: rat uterine smooth muscle; cited from earlier work.
The mark [6] stands for this setting: Example 8, Dexamethasone only 10E−6M.
Where [7] appears, read: Example 8, Dexamethasone only 10E−8M.
Where [8] appears, read: Example 8, Dexamethasone only 10E−11M.
The mark [9] stands for this setting: Homo sapiens, PBMC, read-out: % inhibition on PHA-induced IL-2 production.
The mark [10] stands for this setting: Homo sapiens, PBMC, read-out: % inhibition of PHA-induced IL-2 production.
Setting [11] is: Homo sapiens, PBMC, read-out: IL-2 inhibition.
[12] abbreviates: MPA 10^−5M + Dexamethasone 10E−8M.
[13] abbreviates: MPA 10^−8M + Dexamethasone 10E−8M.
Where [14] appears, read: MPA 10^−8M + Dexamethasone 10E−11M.
Setting [15] is: MPA 10^−10M + Dexamethasone 10E−8M.
[16] abbreviates: P4 10^−5M + Dexamethasone 10E−8M.
Setting [17] is: P4 10^−8M + Dexamethasone 10E−8M.
Where [18] appears, read: P4 10^−8M + Dexamethasone 10E−11M.
Where [19] appears, read: P4 10^−10M + Dexamethasone 10E−8M.

Where two headings read alike, the source gives them in different places.

Broadly, the inhibition is the change of the read-out against control, counted positive when it falls. Broadly, the IC50 is the concentration that gives 50% inhibition.

Consider `C[C@@H]1C[C@H]2[C@@H]3CCC4=CC(=O)C=C[C@]4(C)[C@@]3(F)[C@@H](O)C[C@]2(C)[C@@]1(O)C(=O)CO` [Dexamethasone], for which the “% inhibition of PHA-induced IL-2 production” value in experiment [1] (setting [6]) is recorded as “(86%)”; in experiment [1] (setting [7]), 67%; in experiment [1] (setting [8]), “(72%)”. The “mean IL-2” value is given as 109.6 pg/mL in experiment [1] (setting [6]); 251.6 pg/mL in experiment [1] (setting [7]); 216.1 pg/mL in experiment [1] (setting [8]); 160.6 pg/mL in experiment [1] (Table 1, Dexamethasone only 10^−6M); 398.1 pg/mL in experiment [1] (Table 1, Dexamethasone only 10^−8M); 312.7 pg/mL in experiment [1] (Table 1, Dexamethasone only 10^−10M). Further, the “mean IL-2” value in experiment [1] (Table 1, Dexamethasone only 10^−12M) came to 371.7 pg/mL. In addition, the “levels of IL-2 in PBMCs” value in experiment [1] (dex 10^−8M, PHA, n=17, mean±SD) worked out at 293 ± 338 pg/mL; in experiment [1] (dexamethasone 10^−6M, PHA, n=17, mean±SD) it was 144 ± 157 pg/mL; in experiment [1] (dexamethasone 10^−10 M, PHA, n=14, mean±SD), 287 ± 313 pg/mL; in experiment [1] (dexamethasone 10^−12 M, PHA, n=11, mean±SD), 371 ± 447 pg/mL. Further, the inhibition at 1 µM was found to be 87% in experiment [1] (Homo sapiens, PBMC) and 21% in experiment [2] (setting [9]). In addition, the half-inhibitory concentration (IC50) in experiment [1] (Homo sapiens, PBMC, Dexamethasone+17HPC at lower 17HPC concentrations, read-out: Dexamethasone-IC50) was 0.001 to 0.0631 nM; in experiment [1] (Homo sapiens, PBMC, read-out: Dexamethasone IC50, Dexamethasone only, sigmoidal model, N=14), 31.6 nM; in experiment [1] (Homo sapiens, PBMC, read-out: Dexamethasone IC50, with 17HPC 10^−5M add-on), 25.4 nM; in experiment [1] (Homo sapiens, PBMC, read-out: Dexamethasone IC50, with 17HPC 10^−10M add-on), 0.0627 nM. Also, the inhibition at 0.0001 µM in experiment [1] (setting [9]) is 52%. For the same compound, the “% inhibition of PHA stimulation of IL-2” value came to 78% in experiment [1] (Dexamethasone only 10^−6 M (Imax)), 46% in experiment [1] (Dexamethasone only 10^−8 M), 57% in experiment [1] (Dexamethasone only 10^−10 M) and 49% in experiment [1] (Dexamethasone only 10^−12 M). Also, the “effect in basal IL-2 level” value in experiment [1] (no PHA stimulation, data not shown) is “no significant effect”. The “% inhibition on PHA-induced IL-2 production” value in experiment [2] (FIG. 2, Dexamethasone 10^−10 M, with addition of IL-2 and IL-4) was “no inhibition”. In addition, in experiment [2] (FIG. 5, Dexamethasone 10^−10 M without 17HPC), the “PHA-induced IL-2 level” value is recorded as 2364 pg/mL.
`CC(=O)O[C@]1(C(C)=O)CC[C@H]2[C@@H]3C[C@H](C)C4=CC(=O)CC[C@]4(C)[C@H]3CC[C@@]21C` [MPA, MEDROXYPROGESTERONE ACETATE]: the inhibition at 0.01 µM in experiment [1] (Homo sapiens, PBMC) was 78%. Testing at 10 µM in experiment [1] (Homo sapiens, PBMC) gave an inhibition of 95%. For the same compound, the inhibition at 0.0001 µM was 73% in experiment [1] (setting [10]) and not below 86% in experiment [1] (setting [11]). Further, the “% inhibition of PHA-induced IL-2 production” value in experiment [1] (setting [12]) was “(98%)”; in experiment [1] (setting [13]), 96%; in experiment [1] (setting [14]) it was “(83%)”; in experiment [1] (setting [15]), “(94%)”. Besides, the “mean IL-2” value is listed as 12.3 pg/mL in experiment [1] (setting [12]); 39.8 pg/mL in experiment [1] (MPA 10^−5M, PHA, no Dexamethasone); 29.2 pg/mL in experiment [1] (setting [13]); 129.1 pg/mL in experiment [1] (setting [14]); 166.9 pg/mL in experiment [1] (MPA 10^−8M, PHA, no Dexamethasone); 44.7 pg/mL in experiment [1] (setting [15]). Moreover, the “mean IL-2” value in experiment [1] (MPA 10^−10M, PHA, no Dexamethasone) turned out to be 206.1 pg/mL. Moreover, the “improvement in corticosteroid sensitivity, responding sub-group” value in experiment [2] (FIG. 9, Dexamethasone 10^−10 M) is “up to 58%”. Besides, the “reduction (worsening) in corticosteroid sensitivity, other sub-group” value in experiment [2] (FIG. 9, Dexamethasone 10^−10 M) is on record as “up to 88%”.
Regarding `CC(=O)[C@H]1CC[C@H]2[C@@H]3CCC4=CC(=O)CC[C@]4(C)[C@H]3CC[C@]12C` [P4, Progesterone], the inhibition at 0.01 µM in experiment [1] (Homo sapiens, PBMC) amounted to 36%. The same compound displayed an inhibition at 10 µM in experiment [1] (Homo sapiens, PBMC) of 85%. Besides, the inhibition at 0.0001 µM in experiment [1] (setting [10]) was 34%; in experiment [1] (setting [11]) it was not below 86%. Besides, the “% inhibition of PHA-induced IL-2 production” value is on record as “(89%)” in experiment [1] (setting [16]), “(88%)” in experiment [1] (setting [17]), “(87%)” in experiment [1] (setting [18]) and “(92%)” in experiment [1] (setting [19]). Also, the “mean IL-2” value in experiment [1] (setting [16]) amounted to 81.2 pg/mL; in experiment [1] (P4 10^−5M, PHA, no Dexamethasone), 113.8 pg/mL; in experiment [1] (setting [17]) it was 91.4 pg/mL; in experiment [1] (setting [18]), 100.8 pg/mL; in experiment [1] (P4 10^−8M, PHA, no Dexamethasone), 486.2 pg/mL; in experiment [1] (setting [19]), 59.6 pg/mL. Further, the “mean IL-2” value in experiment [1] (P4 10^−10M, PHA, no Dexamethasone) is given as 506.9 pg/mL. In addition, the “subjects with more than 10% improvement in maximal Dexamethasone inhibition” value in experiment [2] (FIGS. 7-8, Dexamethasone 10^−10 M) was 6 out of 8. Further, the “effect on premenstrual fall in peak flow rate” value in experiment [3] is recorded as “eliminated the premenstrual dips in peak flow”. For the same compound, the “patients with an increase in both FEV1 and FVC” value in experiment [4] was 50%. Moreover, the “patients with an increase of 27% or greater in PEF” value in experiment [4] is recorded as 50%. In addition, in experiment [4], the “patients with bronchodilator effect (greater than 12% increase) in either FEV1 or FVC” value is 75%. Also, the “effect on MAPK tyrosine phosphorylation and membrane-associated MAPK activity” value in experiment [5] is “increased MAPK tyrosine phosphorylation and membrane-associated MAPK activity”.
On to estradiol-17 beta [estrogen], for which the “effect on MAPK tyrosine phosphorylation and membrane-associated MAPK activity” value in experiment [5] was “increased MAPK tyrosine phosphorylation and membrane-associated MAPK activity”.
